Experimental data reported in publication PMC5433425 (PeerJ, 2017).

Test system: E. coli AG100tet
Experiment: EtBr efflux by real-time fluorometry
Settings: 80 µM

CN(C)CCCN1c2ccccc2Sc2ccc(Cl)cc21 [CPZ, chlorpromazine]
Fluorescence raw data, Channel Cycling A.530/585hp (cycle 1, + glucose): 6.9729
Fluorescence raw data, Channel Cycling A.530/585hp (cycle 1, without glucose): 6.962
Fluorescence raw data, Channel Cycling A.530/585hp (cycle 2, + glucose): 6.777
Fluorescence raw data, Channel Cycling A.530/585hp (cycle 2, without glucose): 6.801
Fluorescence raw data, Channel Cycling A.530/585hp (cycle 3, + glucose): 6.512
Fluorescence raw data, Channel Cycling A.530/585hp (cycle 3, without glucose): 6.754
Fluorescence raw data, Channel Cycling A.530/585hp (cycle 4, without glucose): 6.877
Fluorescence raw data, Channel Cycling A.530/585hp (cycle 5, without glucose): 7.026
Fluorescence raw data, Channel Cycling A.530/585hp (cycle 6, without glucose): 7.1507
Fluorescence raw data, Channel Cycling A.530/585hp (cycle 7, without glucose): 7.108
Fluorescence raw data, Channel Cycling A.530/585hp (cycle 8, without glucose): 7.075
Fluorescence raw data, Channel Cycling A.530/585hp (cycle 9, + glucose): 6.252
Fluorescence raw data, Channel Cycling A.530/585hp (cycle 9, without glucose): 7.246
Fluorescence raw data, Channel Cycling A.530/585hp (cycle 10, + glucose): 6.3883
Fluorescence raw data, Channel Cycling A.530/585hp (cycle 10, without glucose): 7.315
Fluorescence raw data, Channel Cycling A.530/585hp (cycle 11, + glucose): 6.371
Fluorescence raw data, Channel Cycling A.530/585hp (cycle 11, without glucose): 7.397
Fluorescence raw data, Channel Cycling A.530/585hp (cycle 12, + glucose): 6.405
Fluorescence raw data, Channel Cycling A.530/585hp (cycle 12, without glucose): 7.4437
Fluorescence raw data, Channel Cycling A.530/585hp (cycle 13, + glucose): 6.558
Fluorescence raw data, Channel Cycling A.530/585hp (cycle 13, without glucose): 7.742
Fluorescence raw data, Channel Cycling A.530/585hp (cycle 14, + glucose): 6.536
Fluorescence raw data, Channel Cycling A.530/585hp (cycle 14, without glucose): 7.795
Fluorescence raw data, Channel Cycling A.530/585hp (cycle 15, + glucose): 6.4669
Fluorescence raw data, Channel Cycling A.530/585hp (cycle 15, without glucose): 7.899
Fluorescence raw data, Channel Cycling A.530/585hp (cycle 16, + glucose): 6.613
Fluorescence raw data, Channel Cycling A.530/585hp (cycle 16, without glucose): 7.989
Fluorescence raw data, Channel Cycling A.530/585hp (cycle 17, + glucose): 6.675
Fluorescence raw data, Channel Cycling A.530/585hp (cycle 17, without glucose): 8.041
Fluorescence raw data, Channel Cycling A.530/585hp (cycle 18, + glucose): 6.686
Fluorescence raw data, Channel Cycling A.530/585hp (cycle 18, without glucose): 8.027
Fluorescence raw data, Channel Cycling A.530/585hp (cycle 19, + glucose): 6.605
Fluorescence raw data, Channel Cycling A.530/585hp (cycle 19, without glucose): 8.219
Fluorescence raw data, Channel Cycling A.530/585hp (cycle 20, + glucose): 6.711
Fluorescence raw data, Channel Cycling A.530/585hp (cycle 20, without glucose): 8.174
Fluorescence raw data, Channel Cycling A.530/585hp (cycle 21, + glucose): 6.762
Fluorescence raw data, Channel Cycling A.530/585hp (cycle 21, without glucose): 8.255
Fluorescence raw data, Channel Cycling A.530/585hp (cycle 22, + glucose): 6.7278
Fluorescence raw data, Channel Cycling A.530/585hp (cycle 22, without glucose): 8.507
Fluorescence raw data, Channel Cycling A.530/585hp (cycle 23, + glucose): 6.745
Fluorescence raw data, Channel Cycling A.530/585hp (cycle 23, without glucose): 8.467
Fluorescence raw data, Channel Cycling A.530/585hp (cycle 24, + glucose): 6.771
Fluorescence raw data, Channel Cycling A.530/585hp (cycle 24, without glucose): 8.6
Fluorescence raw data, Channel Cycling A.530/585hp (cycle 25, + glucose): 6.796
Fluorescence raw data, Channel Cycling A.530/585hp (cycle 25, without glucose): 8.667
Fluorescence raw data, Channel Cycling A.530/585hp (cycle 26, + glucose): 6.92
Fluorescence raw data, Channel Cycling A.530/585hp (cycle 26, without glucose): 8.734
Fluorescence raw data, Channel Cycling A.530/585hp (cycle 27, + glucose): 6.8217
Fluorescence raw data, Channel Cycling A.530/585hp (cycle 27, without glucose): 8.768
Fluorescence raw data, Channel Cycling A.530/585hp (cycle 28, + glucose): 6.925
Fluorescence raw data, Channel Cycling A.530/585hp (cycle 28, without glucose): 8.988
Fluorescence raw data, Channel Cycling A.530/585hp (cycle 29, + glucose): 6.828
Fluorescence raw data, Channel Cycling A.530/585hp (cycle 29, without glucose): 9.111
Fluorescence raw data, Channel Cycling A.530/585hp (cycle 30, + glucose): 6.9
Fluorescence raw data, Channel Cycling A.530/585hp (cycle 30, without glucose): 8.957
Fluorescence raw data, Channel Cycling A.530/585hp (cycle 31, + glucose): 6.782
Fluorescence raw data, Channel Cycling A.530/585hp (cycle 31, without glucose): 9.091
Fluorescence raw data, Channel Cycling A.530/585hp (cycle 32, + glucose): 6.729
Fluorescence raw data, Channel Cycling A.530/585hp (cycle 32, without glucose): 9.229
Fluorescence raw data, Channel Cycling A.530/585hp (cycle 33, + glucose): 6.907
Fluorescence raw data, Channel Cycling A.530/585hp (cycle 33, without glucose): 9.3007
Fluorescence raw data, Channel Cycling A.530/585hp (cycle 34, + glucose): 6.901
Fluorescence raw data, Channel Cycling A.530/585hp (cycle 34, without glucose): 9.345
Fluorescence raw data, Channel Cycling A.530/585hp (cycle 35, + glucose): 6.783
Fluorescence raw data, Channel Cycling A.530/585hp (cycle 35, without glucose): 9.405
Fluorescence raw data, Channel Cycling A.530/585hp (cycle 36, + glucose): 6.785
Fluorescence raw data, Channel Cycling A.530/585hp (cycle 36, without glucose): 9.367
Fluorescence raw data, Channel Cycling A.530/585hp (cycle 37, + glucose): 6.975
